According to ChEMBL document CHEMBL5104152, “DNA-encoded library screening on two validated enzymes of the peptidoglycan biosynthetic pathway” (Bioorg Med Chem Lett, 2022):
Values belong to the compound of their own block, whether it stands above or below them.

How the values were obtained:
[1] = biological target: D-alanine--D-alanine ligase B (Escherichia coli K-12) (UniProt P07862); assay: Inhibition of recombinant Escherichia coli DdlB assessed as residual activity at 1 mM using D-alanine as substrate incubated for 20 mins and measured by malachite green based colorimetric assay relative to control
[2] = test system: Escherichia coli; assay: Antibacterial activity against Escherichia coli ATCC 25922 incubated for 20 hrs and measured by broth microdilution method; format: functional
[3] = test system: Escherichia coli; assay: Antibacterial activity against Escherichia coli N43 incubated for 20 hrs and measured by broth microdilution method; format: functional
[4] = biological target: D-alanine--D-alanine ligase B (Escherichia coli K-12, UniProt P07862); assay: Inhibition of recombinant Escherichia coli DdlB using D-alanine as substrate incubated for 20 mins and measured by malachite green based colorimetric assay
[5] = test system: Escherichia coli; assay: Antibacterial activity against Escherichia coli D22 incubated for 20 hrs and measured by broth microdilution method; format: functional
[6] = test system: Staphylococcus aureus; assay: Antibacterial activity against Staphylococcus aureus ATCC 29213 incubated for 20 hrs and measured by broth microdilution method; format: functional
[7] = biological target: UDP-N-acetylglucosamine 1-carboxyvinyltransferase (Escherichia coli K-12) (UniProt P0A749); assay: Inhibition of recombinant Escherichia coli MurA assessed as residual activity at 1 mM using UDP-N-acetylglucosamine as substrate incubated for 15 mins and measured by malachite green based colorimetric assay relative to control
UDP-N-acetylglucosamine 1-carboxyvinyltransferase (Escherichia coli K-12), sequence (P0A749 whole entry): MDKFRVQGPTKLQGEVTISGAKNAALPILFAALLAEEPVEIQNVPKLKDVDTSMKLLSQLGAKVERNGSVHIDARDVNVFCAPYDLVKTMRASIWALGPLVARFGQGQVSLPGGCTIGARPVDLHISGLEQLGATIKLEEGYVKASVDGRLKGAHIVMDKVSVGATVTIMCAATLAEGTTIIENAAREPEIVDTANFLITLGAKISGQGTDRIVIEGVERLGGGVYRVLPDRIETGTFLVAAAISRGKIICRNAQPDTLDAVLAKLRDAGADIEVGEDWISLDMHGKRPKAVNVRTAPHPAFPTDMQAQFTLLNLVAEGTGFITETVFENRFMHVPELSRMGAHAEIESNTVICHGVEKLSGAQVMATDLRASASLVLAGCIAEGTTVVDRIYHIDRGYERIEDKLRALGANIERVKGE

[8] = biological target: UDP-N-acetylglucosamine 1-carboxyvinyltransferase (Escherichia coli K-12, UniProt P0A749); assay: Inhibition of recombinant Escherichia coli MurA using UDP-N-acetylglucosamine as substrate incubated for 15 mins and measured by malachite green based colorimetric assay
UDP-N-acetylglucosamine 1-carboxyvinyltransferase, sequence (P0A749 whole entry): as above

[9] = biological target: D-alanine--D-alanine ligase B (Escherichia coli K-12) (UniProt P07862); assay: Inhibition of recombinant Escherichia coli DdlB assessed as residual activity at 20 uM using D-alanine as substrate incubated for 20 mins and measured by malachite green based colorimetric assay relative to control
[10] = biological target: UDP-N-acetylglucosamine 1-carboxyvinyltransferase (Escherichia coli K-12) (UniProt P0A749); assay: Inhibition of recombinant Escherichia coli MurA assessed as residual activity at 0.1 mM using UDP-N-acetylglucosamine as substrate incubated for 15 mins and measured by malachite green based colorimetric assay relative to control
[11] = biological target: D-alanine--D-alanine ligase B (Escherichia coli K-12) (UniProt P07862); assay: Inhibition of recombinant Escherichia coli DdlB assessed as residual activity at 100 uM using D-alanine as substrate incubated for 20 mins and measured by malachite green based colorimetric assay relative to control
[12] = biological target: UDP-N-acetylglucosamine 1-carboxyvinyltransferase (Escherichia coli K-12) (UniProt P0A749); assay: Inhibition of recombinant Escherichia coli MurA assessed as residual activity at 0.5 mM using UDP-N-acetylglucosamine as substrate incubated for 15 mins and measured by malachite green based colorimetric assay relative to control
[13] = biological target: D-alanine--D-alanine ligase B (Escherichia coli K-12) (UniProt P07862); assay: Inhibition of recombinant Escherichia coli DdlB assessed as residual activity at 500 uM using D-alanine as substrate incubated for 20 mins and measured by malachite green based colorimetric assay relative to control

Activity [1]: 108%
Structure (SMILES): Cc1c[nH]c2ccc(F)cc12

MIC [2]: > 250 µM | MIC [3]: > 250 µM | IC50 [4]: 243 µM | MIC [5]: > 250 µM | MIC [6]: > 250 µM
Structure (SMILES): CC[C@H](C)[C@@H](CCC(=O)NC)NC(=O)[C@H](Cc1c[nH]c2ccc(F)cc12)NC(=O)[C@H](CCC(C)C)NCc1cnn(C)c1-c1ccc(OC)cc1

Activity [7]: 95.3%
Structure (SMILES): CNC(=O)C(N)Cc1c[nH]c2ccccc12 (configuration not stated)

MIC [2]: > 128 µg/mL | IC50 [8]: 172 µM | MIC [3]: > 128 µg/mL | MIC [5]: 128 µg/mL | MIC [6]: 128 µg/mL
Structure (SMILES): O=C(O)c1cc(-c2ccc(-c3ccccc3)cc2)nc2ccccc12

Activity [7]: 86.3%
Structure (SMILES): O=C(O)c1cc(-c2ccccc2)nc2ccc(Cl)cc12

Activity [1]: 92.9%
Structure (SMILES): COc1ccc(-c2cc[nH]n2)cc1

MIC [2]: > 128 µg/mL | IC50 [8]: 14.1 µM | MIC [3]: > 128 µg/mL | MIC [5]: > 128 µg/mL | MIC [6]: > 128 µg/mL
Structure (SMILES): CNC(=O)[C@@H](Cc1cn(C(=O)OC(C)(C)C)c2ccccc12)NCc1ccc(-n2ccnc2)c(-c2ccc(-c3cc(C(=O)O)c4ccccc4n3)cc2)c1

Activity [1]: 92.5%
Structure (SMILES): NC(Cc1c[nH]c2ccc(F)cc12)C(=O)O (configuration not stated)

Activity [7]: 95.2%
Structure (SMILES): O=C(O)c1cc(-c2ccccc2)nc2c(Cl)cccc12

Activity [1]: 94.2%
Structure (SMILES): O=C(O)CCc1c[nH]c2ccc(F)cc12

Activity [7]: 72.9%
Structure (SMILES): O=C(O)c1cc(-c2cccc(O)c2)nc2ccccc12

Activity [9]: 106%
Structure (SMILES): CNC(=O)[C@H]1CCCC[C@H]1NC(=O)c1nsc2ccc(-c3cc(F)cc(F)c3)cc12

Activity [7]: 92.6%
Structure (SMILES): COC(=O)c1cc(-c2ccccc2)nc2ccccc12

Activity [7]: 79.3%
Structure (SMILES): O=C(O)c1cc(-c2ccc(Cl)cc2)nc2ccccc12

Activity [1]: 58.6%
Structure (SMILES): COc1ccc(-c2[nH]ncc2CN)cc1

Activity [7]: 68%
Structure (SMILES): O=C(O)c1cc(-c2ccco2)nc2ccccc12

Activity [7]: 85.2%
Structure (SMILES): O=C(O)c1c(-c2ccccc2)c(-c2ccccc2)nc2ccccc12

Activity [7]: 77.5%
Structure (SMILES): O=C(O)c1cc(-c2ccccc2O)nc2ccccc12

Activity [10]: 100%
Structure (SMILES): O=C(O)c1cc(-c2ccc(-c3ccc([N+](=O)[O-])cc3)cc2)nc2ccc(Br)cc12

Activity [7]: 82.4%
Structure (SMILES): O=C(O)c1cc(-c2cccc(Cl)c2)nc2ccccc12

Activity [10]: 98.3%
Structure (SMILES): O=C(O)c1cc(-c2ccc(C3CCCCC3)cc2)nc2ccccc12

Activity [7]: 66.6%
Structure (SMILES): O=C(O)c1cc(-c2ccc(O)cc2)nc2ccccc12

Activity [9]: 103%
Structure (SMILES): CNC(=O)[C@@H]1[C@@H](C)OC(C)(C)N1C(=O)[C@@H](NC(=O)c1nsc2ccc(-c3cc(F)cc(F)c3)cc12)C(C)C

Activity [7]: 101%
Structure (SMILES): O=C(O)c1cc(-c2ccccc2)nc2cc(Cl)ccc12

Activity [11]: 87%
Structure (SMILES): CNC(=O)C[C@H](C)NC(=O)c1nsc2ccc(-c3cc(F)cc(F)c3)cc12

Activity [7]: 58.8%
Structure (SMILES): O=C(O)c1cc(-c2ccccc2Cl)nc2ccccc12

Activity [12]: 82.6%
Structure (SMILES): CC(=O)Nc1ccc(-c2cc(C(=O)O)c3ccccc3n2)cc1

Activity [7]: 77.3%
Structure (SMILES): O=C(O)c1cc(-c2ccc3c(c2)OCCO3)nc2ccccc12

MIC [2]: > 128 µg/mL | IC50 [8]: 78.3 µM | MIC [3]: > 128 µg/mL | MIC [5]: 32 µg/mL | MIC [6]: 64 µg/mL
Structure (SMILES): O=C(O)c1cc(-c2ccc(/C=C/c3ccccc3)cc2)nc2ccccc12

IC50 [8]: 15.5 µM
Structure (SMILES): CNC(=O)[C@@H](Cc1c[nH]c2ccccc12)NCc1ccc(-n2ccnc2)c(-c2ccc(-c3cc(C(=O)O)c4ccccc4n3)cc2)c1

Activity [13]: 81%
Structure (SMILES): CCN(CC)C(=O)c1ccc(-c2cc3nc[nH]c3nc2C(=O)N[C@@H](Cc2ccccc2F)C(=O)NC)cc1
